# Several values for one entry are separate records, joined by “and”; a condition that tells them apart may be missing. Equal entries are not always repeated.
# Legend:
# Test in all cases: Kinase inhibitor specificity profiling (Reaction Biology Corporation)
# Assay type in all cases: biochemical
# Parameters in all cases: % Enzyme Activity (relative to DMSO controls): concentration or dose not given beside the values
# [1] = molecular target: T1, panel of 370 protein kinases (Homo sapiens, UniProt O15264); conditions: 2 h, kinase P38d/MAPK13; read-out: % Enzyme Activity (relative to DMSO controls)
# T1 construct: purchased Reaction Biology Corporation (assay service)
# T1 sequence (O15264 whole entry): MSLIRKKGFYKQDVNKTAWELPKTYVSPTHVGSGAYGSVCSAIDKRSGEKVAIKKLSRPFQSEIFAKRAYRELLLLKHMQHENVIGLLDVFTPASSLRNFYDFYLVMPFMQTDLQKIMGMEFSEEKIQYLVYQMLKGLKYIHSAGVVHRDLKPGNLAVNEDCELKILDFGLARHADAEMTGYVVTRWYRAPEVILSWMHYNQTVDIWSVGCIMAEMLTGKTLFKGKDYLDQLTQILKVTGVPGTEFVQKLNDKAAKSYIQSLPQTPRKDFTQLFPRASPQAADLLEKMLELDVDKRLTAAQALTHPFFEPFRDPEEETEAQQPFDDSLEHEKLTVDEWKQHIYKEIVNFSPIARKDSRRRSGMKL
# [2] = molecular target: T2, panel of 370 protein kinases (Homo sapiens, UniProt O75582); conditions: 2 h, kinase MSK1/RPS6KA5; read-out: % Enzyme Activity (relative to DMSO controls)
# T2 construct: purchased Reaction Biology Corporation (assay service)
# [3] = molecular target: T3, panel of 370 protein kinases (Homo sapiens, UniProt P08922); conditions: 2 h, kinase ROS/ROS1; read-out: % Enzyme Activity (relative to DMSO controls)
# T3 construct: purchased Reaction Biology Corporation (assay service)
# [4] = molecular target: T4, panel of 370 protein kinases (Homo sapiens, UniProt P09769); conditions: 2 h, kinase FGR; read-out: % Enzyme Activity (relative to DMSO controls)
# T4 construct: purchased Reaction Biology Corporation (assay service)
# [5] = molecular target: T5, panel of 370 protein kinases (Homo sapiens, UniProt P24723); conditions: 2 h, kinase PKCeta; read-out: % Enzyme Activity (relative to DMSO controls)
# T5 construct: purchased Reaction Biology Corporation (assay service)
# [6] = molecular target: T6, panel of 370 protein kinases (Homo sapiens, UniProt P29317); conditions: 2 h, kinase EPHA2; read-out: % Enzyme Activity (relative to DMSO controls)
# T6 construct: purchased Reaction Biology Corporation (assay service)
# T6 sequence (P29317 24-976): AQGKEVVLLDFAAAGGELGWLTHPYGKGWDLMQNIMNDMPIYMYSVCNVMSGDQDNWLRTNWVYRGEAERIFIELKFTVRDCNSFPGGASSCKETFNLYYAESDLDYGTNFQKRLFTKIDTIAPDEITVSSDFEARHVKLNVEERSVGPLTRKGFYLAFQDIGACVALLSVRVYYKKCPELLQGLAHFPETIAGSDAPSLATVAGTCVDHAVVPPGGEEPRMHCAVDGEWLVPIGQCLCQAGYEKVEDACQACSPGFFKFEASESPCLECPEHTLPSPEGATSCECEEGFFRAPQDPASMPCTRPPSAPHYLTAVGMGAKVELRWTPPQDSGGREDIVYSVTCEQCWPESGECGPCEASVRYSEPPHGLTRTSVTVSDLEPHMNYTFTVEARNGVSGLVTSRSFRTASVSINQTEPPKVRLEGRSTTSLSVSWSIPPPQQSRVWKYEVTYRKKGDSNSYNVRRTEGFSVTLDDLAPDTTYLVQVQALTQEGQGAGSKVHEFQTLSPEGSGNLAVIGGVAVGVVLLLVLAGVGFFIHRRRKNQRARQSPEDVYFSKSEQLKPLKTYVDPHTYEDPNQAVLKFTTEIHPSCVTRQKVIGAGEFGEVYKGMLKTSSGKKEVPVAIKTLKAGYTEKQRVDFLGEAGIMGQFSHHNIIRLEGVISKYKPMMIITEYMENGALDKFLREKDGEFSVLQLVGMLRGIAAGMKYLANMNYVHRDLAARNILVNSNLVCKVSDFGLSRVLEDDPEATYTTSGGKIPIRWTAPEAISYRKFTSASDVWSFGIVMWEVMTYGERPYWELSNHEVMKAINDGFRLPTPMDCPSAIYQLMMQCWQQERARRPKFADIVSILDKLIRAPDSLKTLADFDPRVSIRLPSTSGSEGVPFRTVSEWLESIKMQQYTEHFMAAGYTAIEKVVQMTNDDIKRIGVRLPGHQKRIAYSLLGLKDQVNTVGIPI
# [7] = molecular target: T7, panel of 370 protein kinases (Homo sapiens, UniProt P34947); conditions: 2 h, kinase GRK5; read-out: % Enzyme Activity (relative to DMSO controls)
# T7 construct: purchased Reaction Biology Corporation (assay service)
# T7 sequence (P34947 whole entry): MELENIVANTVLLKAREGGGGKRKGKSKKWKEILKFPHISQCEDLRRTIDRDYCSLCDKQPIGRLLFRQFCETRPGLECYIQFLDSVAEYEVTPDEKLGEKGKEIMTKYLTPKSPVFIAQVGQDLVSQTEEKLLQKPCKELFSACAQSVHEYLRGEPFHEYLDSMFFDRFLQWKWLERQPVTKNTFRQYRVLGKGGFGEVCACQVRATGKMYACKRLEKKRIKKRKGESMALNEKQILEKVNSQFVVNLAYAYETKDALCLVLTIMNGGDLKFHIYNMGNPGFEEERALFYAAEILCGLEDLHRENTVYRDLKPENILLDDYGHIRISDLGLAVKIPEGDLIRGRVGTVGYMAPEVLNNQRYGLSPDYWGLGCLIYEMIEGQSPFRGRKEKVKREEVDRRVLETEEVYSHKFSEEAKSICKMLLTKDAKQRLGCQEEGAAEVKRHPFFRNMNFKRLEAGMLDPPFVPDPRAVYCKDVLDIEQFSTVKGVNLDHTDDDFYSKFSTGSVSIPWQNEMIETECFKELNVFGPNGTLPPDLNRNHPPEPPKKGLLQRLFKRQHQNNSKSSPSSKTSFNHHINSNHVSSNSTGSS
# [8] = molecular target: T8, panel of 370 protein kinases (Homo sapiens, UniProt P36896); conditions: 2 h, kinase ALK4/ACVR1B; read-out: % Enzyme Activity (relative to DMSO controls)
# T8 construct: purchased Reaction Biology Corporation (assay service)
# [9] = molecular target: T9, panel of 370 protein kinases (Homo sapiens, UniProt P41240); conditions: kinase CSK
# T9 construct: purchased Reaction Biology Corporation (assay service)
# T9 sequence (P41240 whole entry): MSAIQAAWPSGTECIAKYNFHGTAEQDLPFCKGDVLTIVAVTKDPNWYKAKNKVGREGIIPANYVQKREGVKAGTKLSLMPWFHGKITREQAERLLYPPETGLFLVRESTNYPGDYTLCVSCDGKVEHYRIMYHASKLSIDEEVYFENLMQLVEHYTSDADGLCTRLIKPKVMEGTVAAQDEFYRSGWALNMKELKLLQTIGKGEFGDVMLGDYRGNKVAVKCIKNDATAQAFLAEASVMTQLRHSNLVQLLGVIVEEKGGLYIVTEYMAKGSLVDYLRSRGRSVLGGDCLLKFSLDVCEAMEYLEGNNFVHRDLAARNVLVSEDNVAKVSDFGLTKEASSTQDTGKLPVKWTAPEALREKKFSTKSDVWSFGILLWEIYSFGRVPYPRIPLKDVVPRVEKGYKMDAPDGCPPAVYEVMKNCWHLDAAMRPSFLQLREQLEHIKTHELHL
# [10] = molecular target: T10, panel of 370 protein kinases (Homo sapiens, UniProt P54756); conditions: kinase EPHA5
# T10 construct: purchased Reaction Biology Corporation (assay service)
# T10 sequence (P54756 25-1037): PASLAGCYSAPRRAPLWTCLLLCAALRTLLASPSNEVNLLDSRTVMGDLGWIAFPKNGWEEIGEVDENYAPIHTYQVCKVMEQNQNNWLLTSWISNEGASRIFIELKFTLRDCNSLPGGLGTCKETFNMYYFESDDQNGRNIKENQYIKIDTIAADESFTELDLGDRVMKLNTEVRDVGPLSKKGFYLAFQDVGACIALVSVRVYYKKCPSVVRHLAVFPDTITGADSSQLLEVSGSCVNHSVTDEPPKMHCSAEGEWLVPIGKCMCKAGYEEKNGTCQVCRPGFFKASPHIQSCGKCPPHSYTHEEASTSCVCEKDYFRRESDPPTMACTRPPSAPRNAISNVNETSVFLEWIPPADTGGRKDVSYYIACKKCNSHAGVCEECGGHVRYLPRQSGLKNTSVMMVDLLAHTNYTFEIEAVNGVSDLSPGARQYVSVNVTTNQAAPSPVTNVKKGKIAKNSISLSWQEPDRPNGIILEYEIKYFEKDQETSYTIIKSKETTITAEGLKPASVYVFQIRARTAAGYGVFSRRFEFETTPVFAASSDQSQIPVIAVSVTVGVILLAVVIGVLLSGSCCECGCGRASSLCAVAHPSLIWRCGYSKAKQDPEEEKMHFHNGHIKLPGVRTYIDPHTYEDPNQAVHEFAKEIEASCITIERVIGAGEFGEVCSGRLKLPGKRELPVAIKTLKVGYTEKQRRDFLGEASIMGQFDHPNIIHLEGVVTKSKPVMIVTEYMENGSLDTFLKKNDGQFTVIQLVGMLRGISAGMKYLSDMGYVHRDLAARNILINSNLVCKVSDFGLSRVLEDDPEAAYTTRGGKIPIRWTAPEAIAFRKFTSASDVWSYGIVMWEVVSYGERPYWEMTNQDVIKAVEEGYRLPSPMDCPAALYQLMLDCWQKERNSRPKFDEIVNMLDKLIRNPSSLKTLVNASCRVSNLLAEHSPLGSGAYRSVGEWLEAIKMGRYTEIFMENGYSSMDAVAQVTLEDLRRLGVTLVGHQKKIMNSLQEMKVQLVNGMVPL
# [11] = molecular target: T11, panel of 370 protein kinases (Homo sapiens, UniProt Q13177); conditions: 2 h, kinase PAK2; read-out: % Enzyme Activity (relative to DMSO controls)
# T11 construct: purchased Reaction Biology Corporation (assay service)
# [12] = molecular target: T12, panel of 370 protein kinases (Homo sapiens, UniProt Q13627); conditions: 2 h, kinase DYRK1/DYRK1A; read-out: % Enzyme Activity (relative to DMSO controls)
# T12 construct: purchased Reaction Biology Corporation (assay service)
# [13] = molecular target: T13, panel of 370 protein kinases (Homo sapiens, UniProt Q15208); conditions: 2 h, kinase STK38/NDR1; read-out: % Enzyme Activity (relative to DMSO controls)
# T13 construct: purchased Reaction Biology Corporation (assay service)
# [14] = molecular target: T14, panel of 370 protein kinases (Homo sapiens, UniProt Q15303); conditions: 2 h, kinase ERBB4/HER4; read-out: % Enzyme Activity (relative to DMSO controls)
# T14 construct: purchased Reaction Biology Corporation (assay service)
# [15] = molecular target: T15, panel of 370 protein kinases (Homo sapiens, UniProt Q16539); conditions: kinase P38a/MAPK14
# T15 construct: purchased Reaction Biology Corporation (assay service)
# T15 sequence (Q16539 whole entry): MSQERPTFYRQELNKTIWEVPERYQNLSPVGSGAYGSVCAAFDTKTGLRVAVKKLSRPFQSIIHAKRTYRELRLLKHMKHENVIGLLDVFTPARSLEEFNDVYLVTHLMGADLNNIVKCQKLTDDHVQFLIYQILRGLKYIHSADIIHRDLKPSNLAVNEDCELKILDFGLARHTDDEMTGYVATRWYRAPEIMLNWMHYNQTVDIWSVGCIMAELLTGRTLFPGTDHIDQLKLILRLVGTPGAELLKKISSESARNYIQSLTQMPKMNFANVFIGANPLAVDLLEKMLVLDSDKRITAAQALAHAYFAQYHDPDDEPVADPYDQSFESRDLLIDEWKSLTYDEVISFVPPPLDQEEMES
# [16] = molecular target: T16, panel of 370 protein kinases (Homo sapiens, UniProt Q6XUX3); conditions: 2 h, kinase RIPK5; read-out: % Enzyme Activity (relative to DMSO controls)
# T16 construct: purchased Reaction Biology Corporation (assay service)
# [17] = molecular target: T17, panel of 370 protein kinases (Homo sapiens, UniProt Q8IU85); conditions: 2 h, kinase CAMK1d; read-out: % Enzyme Activity (relative to DMSO controls)
# T17 construct: purchased Reaction Biology Corporation (assay service)
# [18] = molecular target: T18, panel of 370 protein kinases (Homo sapiens, UniProt Q8N5S9); conditions: 2 h, kinase CAMKK1; read-out: % Enzyme Activity (relative to DMSO controls)
# T18 construct: purchased Reaction Biology Corporation (assay service)
# [19] = molecular target: T19, panel of 370 protein kinases (Homo sapiens, UniProt Q99986); conditions: kinase VRK1
# T19 construct: purchased Reaction Biology Corporation (assay service)
# T19 sequence (Q99986 whole entry): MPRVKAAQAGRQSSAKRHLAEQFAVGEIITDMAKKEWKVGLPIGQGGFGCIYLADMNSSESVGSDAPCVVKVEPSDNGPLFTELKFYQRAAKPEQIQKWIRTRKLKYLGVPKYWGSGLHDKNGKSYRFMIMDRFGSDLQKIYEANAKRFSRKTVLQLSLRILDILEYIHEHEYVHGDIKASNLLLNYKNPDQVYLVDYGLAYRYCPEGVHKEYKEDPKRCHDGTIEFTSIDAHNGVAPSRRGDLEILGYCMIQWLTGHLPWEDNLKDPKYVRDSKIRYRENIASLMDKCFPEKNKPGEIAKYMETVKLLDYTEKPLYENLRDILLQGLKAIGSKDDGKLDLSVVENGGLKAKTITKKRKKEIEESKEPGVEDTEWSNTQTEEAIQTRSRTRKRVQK
# [20] = molecular target: T20, panel of 370 protein kinases (Homo sapiens, UniProt Q9HC98); conditions: 2 h, kinase NEK6; read-out: % Enzyme Activity (relative to DMSO controls)
# T20 construct: purchased Reaction Biology Corporation (assay service)
# T20 sequence (Q9HC98 whole entry): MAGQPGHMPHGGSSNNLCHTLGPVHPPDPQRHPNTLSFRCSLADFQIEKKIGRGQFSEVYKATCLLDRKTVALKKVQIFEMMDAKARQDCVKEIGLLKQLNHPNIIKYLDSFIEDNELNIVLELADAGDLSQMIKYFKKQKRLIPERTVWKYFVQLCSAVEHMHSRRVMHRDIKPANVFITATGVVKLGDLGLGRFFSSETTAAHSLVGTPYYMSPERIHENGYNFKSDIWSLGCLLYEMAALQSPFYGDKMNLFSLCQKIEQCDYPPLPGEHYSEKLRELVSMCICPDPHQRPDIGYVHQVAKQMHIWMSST
# [21] = molecular target: T21, panel of 370 protein kinases (Homo sapiens, UniProt Q9P286); conditions: 2 h, kinase PAK5; read-out: % Enzyme Activity (relative to DMSO controls)
# T21 construct: purchased Reaction Biology Corporation (assay service)
# [22] = molecular target: T22, panel of 370 protein kinases (Homo sapiens, UniProt Q9UEE5); conditions: 2 h, kinase DRAK1/STK17A; read-out: % Enzyme Activity (relative to DMSO controls)
# T22 construct: purchased Reaction Biology Corporation (assay service)
# T22 sequence (Q9UEE5 whole entry): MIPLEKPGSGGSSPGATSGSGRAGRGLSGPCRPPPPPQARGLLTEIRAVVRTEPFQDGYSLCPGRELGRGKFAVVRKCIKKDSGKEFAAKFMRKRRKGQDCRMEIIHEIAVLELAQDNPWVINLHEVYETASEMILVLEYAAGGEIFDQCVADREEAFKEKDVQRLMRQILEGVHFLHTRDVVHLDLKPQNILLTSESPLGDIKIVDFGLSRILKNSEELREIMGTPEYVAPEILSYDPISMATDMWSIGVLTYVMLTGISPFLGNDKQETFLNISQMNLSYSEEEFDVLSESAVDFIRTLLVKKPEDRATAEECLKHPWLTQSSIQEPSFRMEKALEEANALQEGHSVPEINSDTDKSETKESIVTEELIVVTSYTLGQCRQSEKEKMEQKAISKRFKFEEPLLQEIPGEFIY
smiles,measurement,setting,value
CCN1CCN(C(=O)c2ccc(Nc3ncc(F)c(-c4ccc5nc(N(C)C)sc5c4)n3)nc2)CC1 [YK-2-69],remaining activity at 1 µM,[1],102%
same,remaining activity at 1 µM,[2],115%
same,remaining activity at 1 µM,[3],79.3%
same,remaining activity at 1 µM,[4],106%
same,remaining activity at 1 µM,[5],77%
same,remaining activity at 1 µM,[6],103%
same,remaining activity at 1 µM,[7],106%
same,remaining activity at 1 µM,[8],102%
same,% Enzyme Activity (relative to DMSO controls),[9],102.94% and 101.79%
same,% Enzyme Activity (relative to DMSO controls),[10],97.73% and 95.85%
same,remaining activity at 1 µM,[11],94.7%
same,remaining activity at 1 µM,[12],61.3%
same,remaining activity at 1 µM,[13],85.5%
same,remaining activity at 1 µM,[14],88.5%
same,% Enzyme Activity (relative to DMSO controls),[15],99.00% and 95.59%
same,remaining activity at 1 µM,[16],111%
same,remaining activity at 1 µM,[17],84.3%
same,remaining activity at 1 µM,[18],95.7%
same,% Enzyme Activity (relative to DMSO controls),[19],95.92% and 87.82%
same,remaining activity at 1 µM,[20],103%
same,remaining activity at 1 µM,[21],101%
same,remaining activity at 1 µM,[22],59%
